This passage reports IC50 and viability, T/C results from PubChem BioAssay AID1918936 (Molecular Pharmacology Branch, DTP, NCI, 2023).

Structures are written as SMILES. “And” between values parts separate entries of the source, which are not always exact repeats. Equal values may be shown once.

For the experiment, the system named is 349418-098-R-PDC complex spheroid viability. The experiment can be described thus: Anticancer human tumor 349418-098-R-PDC patient-derived lung adenocarcinoma cell line growth inhibition. Conditions: for viability, T/C: stronger effect = lower value. An outline of the steps:
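Drug combinations with the LSD1 inhibitor iadademstat tested on tumor cells co-cultured as spheroids with endothelial cells and mesenchymal stem cells. Concentrations descended in half-log increments from clinical Cmax or 10 microM.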

Setting [1] is: curve of first compound, second compound 0.1 µM.
Setting [2] is: curve of first compound, second compound 0.316 µM.
The mark [3] stands for this setting: curve of first compound, second compound 1 µM.
Setting [4] is: curve of first compound, second compound 3.16 µM.
Where [5] appears, read: curve of first compound, second compound 10 µM.
Where [6] appears, read: second compound 0.1 µM, first compound 0.0316 µM.
Where [7] appears, read: second compound 0.1 µM, first compound 0.1 µM.
The mark [8] stands for this setting: second compound 0.1 µM, first compound 0.316 µM.
The mark [9] stands for this setting: second compound 0.1 µM, first compound 1 µM.
Setting [10] is: second compound 0.316 µM, first compound 0.0316 µM.
[11] abbreviates: second compound 0.316 µM, first compound 0.1 µM.
The mark [12] stands for this setting: second compound 0.316 µM, first compound 0.316 µM.
The mark [13] stands for this setting: second compound 0.316 µM, first compound 1 µM.
[14] abbreviates: second compound 1 µM, first compound 0.0316 µM.
Where [15] appears, read: second compound 1 µM, first compound 0.1 µM.
Setting [16] is: second compound 1 µM, first compound 0.316 µM.
Setting [17] is: second compound 1 µM, first compound 1 µM.
[18] abbreviates: second compound 3.16 µM, first compound 0.0316 µM.
The mark [19] stands for this setting: second compound 3.16 µM, first compound 0.1 µM.
The mark [20] stands for this setting: second compound 3.16 µM, first compound 0.316 µM.
Where [21] appears, read: second compound 3.16 µM, first compound 1 µM.
Where [22] appears, read: second compound 10 µM, first compound 0.0316 µM.
Where [23] appears, read: second compound 10 µM, first compound 0.1 µM.
Where [24] appears, read: second compound 10 µM, first compound 0.316 µM.
[25] abbreviates: second compound 10 µM, first compound 1 µM.
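Note: spheroids exposed to agents for seven days before readout.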
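Throughout, for viability, T/C: 100% = DMSO vehicle control wells.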

With `Nc1ccn(C2OC(CO)C(O)C2(F)F)c(=O)n1` (stereo not given) + NC1CCC(NC2CC2c2ccccc2)CC1, the IC50 (as a rule, the concentration that gives 50% inhibition) under setting [1] is less than 0.949 nM; the IC50 under setting [2] is less than 0.949 nM; the IC50 under setting [3] is less than 0.949 nM; the IC50 under setting [4] was less than 0.949 nM; the IC50 under setting [5] is less than 0.949 nM. Moreover, the viability, T/C (commonly the result in the treated group divided by that in the control group, in per cent) by setting is: (second compound 0.1 µM, first compound 0.000949 µM) 4.87%; (second compound 0.1 µM, first compound 0.003 µM) 4.56%; (second compound 0.1 µM, first compound 0.00949 µM) 4.21%; (second compound 0.1 µM, first compound 0.03 µM) 3.79%; (second compound 0.1 µM, first compound 0.0949 µM) 4%; (second compound 0.1 µM, first compound 0.3 µM) 3.98%. The viability, T/C (second compound 0.316 µM, first compound 0.000949 µM) was 4.61%; the viability, T/C (second compound 0.316 µM, first compound 0.003 µM) is 4.85%; the viability, T/C (second compound 0.316 µM, first compound 0.00949 µM) was 4.32%; the viability, T/C (second compound 0.316 µM, first compound 0.03 µM) is 4.15%; the viability, T/C (second compound 0.316 µM, first compound 0.0949 µM) was 4.03%; the viability, T/C (second compound 0.316 µM, first compound 0.3 µM) was 3.47%. The viability, T/C is 4.81% (second compound 1 µM, first compound 0.000949 µM); 4.98% (second compound 1 µM, first compound 0.003 µM); 5.25% (second compound 1 µM, first compound 0.00949 µM); 4.25% (second compound 1 µM, first compound 0.03 µM); 3.86% (second compound 1 µM, first compound 0.0949 µM); 3.77% (second compound 1 µM, first compound 0.3 µM). Also, the viability, T/C (second compound 3.16 µM, first compound 0.000949 µM) was 5.14%; the viability, T/C (second compound 3.16 µM, first compound 0.003 µM) was 4.79%; the viability, T/C (second compound 3.16 µM, first compound 0.00949 µM) is 5.19%; the viability, T/C (second compound 3.16 µM, first compound 0.03 µM) was 4.55%; the viability, T/C (second compound 3.16 µM, first compound 0.0949 µM) was 4.08%; the viability, T/C (second compound 3.16 µM, first compound 0.3 µM) is 3.79%. Further, the viability, T/C (second compound 10 µM, first compound 0.000949 µM) was 4.89%; the viability, T/C (second compound 10 µM, first compound 0.003 µM) is 5.31%; the viability, T/C (second compound 10 µM, first compound 0.00949 µM) is 4.83%; the viability, T/C (second compound 10 µM, first compound 0.03 µM) was 4.8%; the viability, T/C (second compound 10 µM, first compound 0.0949 µM) was 4.86%; the viability, T/C (second compound 10 µM, first compound 0.3 µM) is 3.79%.

For `COc1ccc([C@@H](O)c2cc(-c3ncnc4cc(N5CCOCC5)ccc34)c(F)cc2Cl)nn1` + NC1CCC(NC2CC2c2ccccc2)CC1, the IC50 under setting [1] was 423 nM; the half-inhibitory concentration (IC50) under setting [2] was found to be 471 nM; the IC50 under setting [3] is 468 nM; the IC50 under setting [4] was found to be 520 nM; the IC50 under setting [5] was determined as 299 nM. Further, the viability, T/C under setting [6] is 102%; the viability, T/C under setting [7] is 109%; the viability, T/C under setting [8] was 52.1%; the viability, T/C under setting [9] was 30.2%; the viability, T/C (second compound 0.1 µM, first compound 3.16 µM) is 8.02%; the viability, T/C (second compound 0.1 µM, first compound 10 µM) is 5.61%. Besides, the viability, T/C under setting [10] was 112%; the viability, T/C under setting [11] is 95.1%; the viability, T/C under setting [12] was 63.3%; the viability, T/C under setting [13] is 26.6%; the viability, T/C (second compound 0.316 µM, first compound 3.16 µM) is 8.83%; the viability, T/C (second compound 0.316 µM, first compound 10 µM) is 6.71%. In addition, the viability, T/C was 122% under setting [14]; 102% under setting [15]; 60.6% under setting [16]; 28.4% under setting [17]; 10.5% (second compound 1 µM, first compound 3.16 µM); 6.33% (second compound 1 µM, first compound 10 µM). The viability, T/C reads like this: under setting [18], 102%; under setting [19], 102%; under setting [20], 66.4%; under setting [21], 27%; (second compound 3.16 µM, first compound 3.16 µM) 10.9%; (second compound 3.16 µM, first compound 10 µM) 5.88%. For the same compound, the viability, T/C runs as follows: under setting [22], 98.1%; under setting [23], 78.8%; under setting [24], 48.2%; under setting [25], 23.5%; (second compound 10 µM, first compound 3.16 µM) 9.1%; (second compound 10 µM, first compound 10 µM) 5.47%.

Take `CC(C)CC(NC(=O)CNC(=O)c1cc(Cl)ccc1Cl)B1OC(=O)CC(CC(=O)O)(C(=O)O)O1` (stereo not given): the viability, T/C runs as follows: (compound 0.000316 µM) 88.8% and 103%; (compound 0.001 µM) 24.5% and 38.9%; (compound 0.00316 µM) 4.47% and 4.31%; (compound 0.01 µM) 2.14% and 2%; (compound 0.0316 µM) 1.69% and 1.05%; (compound 0.1 µM) 1.35% and 1.12%. Further, the IC50 (curve of compound) is 0.633 nM and 0.818 nM.

For `O=C(C=Cn1cnc(-c2cc(C(F)(F)F)cc(C(F)(F)F)c2)n1)NNc1cnccn1` + NC1CCC(NC2CC2c2ccccc2)CC1, the IC50 was less than 3.16 nM under setting [1]; less than 3.16 nM under setting [2]; less than 3.16 nM under setting [3]; less than 3.16 nM under setting [4]; less than 3.16 nM under setting [5]. The viability, T/C was 19.9% (second compound 0.1 µM, first compound 0.00316 µM); 8.25% (second compound 0.1 µM, first compound 0.01 µM); 7.06% under setting [6]; 4.2% under setting [7]; 3.1% under setting [8]; 2.53% under setting [9]. Also, the viability, T/C (second compound 0.316 µM, first compound 0.00316 µM) was 16.7%; the viability, T/C (second compound 0.316 µM, first compound 0.01 µM) is 8.83%; the viability, T/C under setting [10] is 6.85%; the viability, T/C under setting [11] was 4.29%; the viability, T/C under setting [12] is 3.65%; the viability, T/C under setting [13] is 2.34%. The viability, T/C (second compound 1 µM, first compound 0.00316 µM) is 22.8%; the viability, T/C (second compound 1 µM, first compound 0.01 µM) was 8.34%; the viability, T/C under setting [14] was 6.23%; the viability, T/C under setting [15] was 4.78%; the viability, T/C under setting [16] was 2.92%; the viability, T/C under setting [17] was 2.31%. Further, the viability, T/C by setting is: (second compound 3.16 µM, first compound 0.00316 µM) 21%; (second compound 3.16 µM, first compound 0.01 µM) 8.38%; under setting [18], 7.11%; under setting [19], 4.9%; under setting [20], 3.12%; under setting [21], 2.6%. For the same compound, the viability, T/C by setting is: (second compound 10 µM, first compound 0.00316 µM) 17.9%; (second compound 10 µM, first compound 0.01 µM) 9.32%; under setting [22], 6.65%; under setting [23], 4.32%; under setting [24], 3.64%; under setting [25], 2.6%.

For `NC1CCC(NC2CC2c2ccccc2)CC1` (stereo not given), the viability, T/C (compound 0.316 µM) was 106% (2×) and 102%; the viability, T/C (compound 3.16 µM) was 103% [middle of 25 runs]. Also, the concentration for half-maximal inhibition (IC50) (compound alone, run of 01/18/2022) was more than 10000 nM.
